In patent US20240317718A1, “SUBSTITUTED HETEROCYCLIC COMPOUNDS” (BRISTOL-MYERS SQUIBB COMPANY, priority 2021, published 2024):

Legend:
Caco-2 cells = conditions: human, Caco-2, 2 h, 3 μM, pH 7.4
[1] = test system: IFNα-induced pSTAT5 (Tyk2-mediated signal transduction); assay: IFNα-induced STAT phosphorylation in human whole blood; type: cell-based; conditions: 1 h incubation with compound, 1000 U/mL IFNα A/D for 15 min, CD3 positive population, read-out: Human Whole blood IFNa pSTAT5 IC50
Experimental: IFNα-Induced STAT Phosphorylation in Human Whole Blood
After an hour long incubation with compound, human whole blood (drawn with ACD-A as anticoagulant) was stimulated with 1000 U/mL recombinant human IFNα A/D (R&D Systems 11200-2) for 15 min. The stimulation was stopped by adding Fix/Lyse buffer (BD 558049). Cells were stained with a CD3 FITC antibody (BD 555916), washed, and permeabilized on ice using Perm III buffer (BD 558050). Cells were then stained with an Alexa-Fluor 647 pSTAT5 (pY694) antibody (BD 612599) for 60 min prior to analysis on the iQue Plus. The amount of pSTAT5 expression was quantitated by median fluorescence intensity after gating on the CD3 positive population.

in vitro = conditions: human, Caco-2, pH 7.4

CACO2 (A-B) (Caco-2 cells) [nm/s]	IC50 [1] [nM]	Papp A→B at 2 h, 3 μM (in vitro) [×10⁻⁶ cm/s]	efflux ratio at 2 h, 3 μM (in vitro)	SMILES
553	–	–	–	[2H]C([2H])([2H])NC(=O)c1nnc(NC(=O)C2CC2)cc1Nc1cccc(-c2noc(COCC)n2)c1OC [Example 3, 6-cyclopropaneamido-4-({3-[5-(ethoxymethyl)-1,2,4-oxadiazol-3-yl]-2-methoxyphenyl}amino)-N-(^2H3)methylpyridazine-3-carboxamide]
591	–	–	–	[2H]C([2H])([2H])NC(=O)c1nnc(NC(=O)C2CC2)cc1Nc1cccc(-c2noc(CCOC)n2)c1OC [Example 4, 6-cyclopropaneamido-4-({2-methoxy-3-[5-(2-methoxyethyl)-1,2,4-oxadiazol-3-yl]phenyl}amino)-N-(^2H3)methylpyridazine-3-carboxamide]
460	–	–	–	[2H]C([2H])([2H])NC(=O)c1nnc(NC(=O)C2CC2)cc1Nc1cccc(-c2cc(C)ncn2)c1OC [Example 8, 6-cyclopropaneamido-4-{[2-methoxy-3-(6-methylpyrimidin-4-yl)phenyl]amino}-N-(^2H3)methylpyridazine-3-carboxamide]
499	–	–	–	[2H]C([2H])([2H])NC(=O)c1nnc(NC(=O)C2CC2)cc1Nc1cccc(-c2ncns2)c1OC [Example 9, 6-cyclopropaneamido-4-{[2-methoxy-3-(1,2,4-thiadiazol-5-yl)phenyl]amino}-N-(^2H3)methylpyridazine-3-carboxamide]
513	–	–	–	[2H]C([2H])([2H])NC(=O)c1nnc(NC(=O)C2CC2)cc1Nc1cccc(-c2cnc(F)cn2)c1OC [Example 10, 6-cyclopropaneamido-4-{[3-(5-fluoropyrazin-2-yl)-2-methoxyphenyl]amino}-N-(^2H3)methylpyridazine-3-carboxamide]
270	–	–	–	[2H]C([2H])([2H])NC(=O)c1nnc(NC(=O)C2CC2)cc1Nc1cccc(-c2cnc(C3CC3)cn2)c1OC [Example 11, 6-cyclopropaneamido-4-{[3-(5-cyclopropylpyrazin-2-yl)-2-methoxyphenyl]amino}-N-(^2H3)methylpyridazine-3-carboxamide]
16	–	–	–	[2H]C([2H])([2H])NC(=O)c1nnc(NC(=O)C2CC2)cc1Nc1cccc(-c2cnc([N+](=O)[O-])cn2)c1OC [Example 12, 6-cyclopropaneamido-4-{[2-methoxy-3-(5-nitropyrazin-2-yl)phenyl]amino}-N-(^2H3)methylpyridazine-3-carboxamide]
–	201	30	1	[2H]C([2H])([2H])NC(=O)c1nnc(NC(=O)C2CC2)cc1Nc1ccc(F)c(-c2cnn(C)c2)c1OC [Example 26, 6-cyclopropaneamido-4-{[4-fluoro-2-methoxy-3-(1-methyl-1H-pyrazol-4-yl)phenyl]amino}-N-(^2H3)methylpyridazine-3-carboxamide]
–	177	31.2	0.9	[2H]C([2H])([2H])NC(=O)c1nnc(NC(=O)C2CC2)cc1Nc1cc(F)cc(-c2cnn(C)c2)c1OC [Example 27, 6-cyclopropaneamido-4-{[5-fluoro-2-methoxy-3-(1-methyl-1H-pyrazol-4-yl)phenyl]amino}-N-(^2H3)methylpyridazine-3-carboxamide]
–	425	27.4	0.7	[2H]C([2H])([2H])NC(=O)c1nnc(NC(=O)C2CC2)cc1Nc1cccc(-c2cnn(C3CC3)c2)c1OC [Example 28, 6-cyclopropaneamido-4-{[3-(1-cyclopropyl-1H-pyrazol-4-yl)-2-methoxyphenyl]amino}-N-(^2H3)methylpyridazine-3-carboxamide]
–	417	31.7	0.5	[2H]C([2H])([2H])NC(=O)c1nnc(NC(=O)C2CC2)cc1Nc1cccc(-c2cnc(C#N)cn2)c1OC [Example 29, 4-{[3-(5-cyanopyrazin-2-yl)-2-methoxyphenyl]amino}-6-cyclopropaneamido-N-(^2H3)methylpyridazine-3-carboxamide]
–	193	22.7	0.5	[2H]C([2H])([2H])NC(=O)c1nnc(NC(=O)C2CC2)cc1Nc1nccc(-c2cnn(C3CC3)c2)c1OC [Example 30, 6-cyclopropaneamido-4-{[4-(1-cyclopropyl-1H-pyrazol-4-yl)-3-methoxypyridin-2-yl]amino}-N-(^2H3)methylpyridazine-3-carboxamide]
–	289	39.3	1	[2H]C([2H])([2H])NC(=O)c1nnc(NC(=O)C2CC2)cc1Nc1nccc(-c2cn(C)nc2C)c1OC [Example 31, 6-cyclopropaneamido-4-{[4-(1,3-dimethyl-1H-pyrazol-4-yl)-3-methoxypyridin-2-yl]amino}-N-(^2H3)methylpyridazine-3-carboxamide]
–	437	31.5	0.9	[2H]C([2H])([2H])NC(=O)c1nnc(NC(=O)C2CC2)cc1Nc1nccc(-c2cnn(C)c2C)c1OC [Example 32, 6-cyclopropaneamido-4-{[4-(1,5-dimethyl-1H-pyrazol-4-yl)-3-methoxypyridin-2-yl]amino}-N-(^2H3)methylpyridazine-3-carboxamide]
–	207	38.3	0.4	[2H]C([2H])([2H])NC(=O)c1nnc(NC(=O)C2CC2)cc1Nc1nccc(-c2nccs2)c1OC [Example 33, 6-cyclopropaneamido-4-{[3-methoxy-4-(1,3-thiazol-2-yl)pyridin-2-yl]amino}-N-(^2H3)methylpyridazine-3-carboxamide]
–	474	23.3	1.1	[2H]C([2H])([2H])NC(=O)c1nnc(NC(=O)C2CC2)cc1Nc1cccc(-c2ccns2)c1OC [Example 34, 6-cyclopropaneamido-4-{[2-methoxy-3-(1,2-thiazol-5-yl)phenyl]amino}-N-(^2H3)methylpyridazine-3-carboxamide]
–	121	42.2	0.5	[2H]C([2H])([2H])NC(=O)c1nnc(NC(=O)C2CC2)cc1Nc1cccc(-c2ccsn2)c1OC [Example 35, 6-cyclopropaneamido-4-{[2-methoxy-3-(1,2-thiazol-3-yl)phenyl]amino}-N-(^2H3)methylpyridazine-3-carboxamide]
–	225	20.3	0.9	[2H]C([2H])([2H])NC(=O)c1nnc(NC(=O)C2CC2)cc1Nc1cccc(-c2cnsc2)c1OC [Example 36, 6-cyclopropaneamido-4-{[2-methoxy-3-(1,2-thiazol-4-yl)phenyl]amino}-N-(^2H3)methylpyridazine-3-carboxamide]
–	84	35.4	0.4	[2H]C([2H])([2H])NC(=O)c1nnc(NC(=O)C2CC2)cc1Nc1cc(F)cc(-c2cocn2)c1OC [Example 37, 6-cyclopropaneamido-4-{[5-fluoro-2-methoxy-3-(1,3-oxazol-4-yl)phenyl]amino}-N-(^2H3)methylpyridazine-3-carboxamide]
–	381	59.5	0.5	[2H]C([2H])([2H])NC(=O)c1nnc(NC(=O)C2CC2)cc1Nc1nccc(-c2cnsc2)c1OC [Example 38, 6-cyclopropaneamido-4-{[3-methoxy-4-(1,2-thiazol-4-yl)pyridin-2-yl]amino}-N-(^2H3)methylpyridazine-3-carboxamide]
–	159	46.3	0.3	[2H]C([2H])([2H])NC(=O)c1nnc(NC(=O)C2CC2)cc1Nc1nccc(-c2nc(C)ns2)c1OC [Example 39, 6-cyclopropaneamido-4-{[3-methoxy-4-(3-methyl-1,2,4-thiadiazol-5-yl)pyridin-2-yl]amino}-N-(^2H3)methylpyridazine-3-carboxamide]
–	179	12.6	0.3	[2H]C([2H])([2H])NC(=O)c1nnc(NC(=O)[C@@H]2C[C@H]2C)cc1Nc1nccc(-c2nc(C)ns2)c1OC [Example 40, 4-{[3-methoxy-4-(3-methyl-1,2,4-thiadiazol-5-yl)pyridin-2-yl]amino}-N-(^2H3)methyl-6-[(1R,2R)-2-methylcyclopropaneamido]pyridazine-3-carboxamide]
–	175	27.7	0.4	[2H]C([2H])([2H])NC(=O)c1nnc(NC(=O)C2CC2)cc1Nc1nccc(-c2ncns2)c1OC [Example 41, 6-cyclopropaneamido-4-{[3-methoxy-4-(1,2,4-thiadiazol-5-yl)pyridin-2-yl]amino}-N-(^2H3)methylpyridazine-3-carboxamide]
–	193	26.6	0.4	[2H]C([2H])([2H])NC(=O)c1nnc(NC(=O)C2CC2)cc1Nc1nccc(-c2cnn(C(F)F)c2)c1OC [Example 42, 6-cyclopropaneamido-4-({4-[1-(difluoromethyl)-1H-pyrazol-4-yl]-3-methoxypyridin-2-yl}amino)-N-(^2H3)methylpyridazine-3-carboxamide]

SMILES	CACO2 (A-B) (Caco-2 cells) [nm/s]	IC50 [1] [nM]	Papp A→B at 2 h, 3 μM (in vitro) [×10⁻⁶ cm/s]	efflux ratio at 2 h, 3 μM (in vitro)
[2H]C([2H])([2H])NC(=O)c1nnc(NC(=O)C2CC2)cc1Nc1cccc(-c2noc(CC)n2)c1OC [Example 43, 6-cyclopropaneamido-4-{[3-(5-ethyl-1,2,4-oxadiazol-3-yl)-2-methoxyphenyl]amino}-N-(^2H3)methylpyridazine-3-carboxamide]	–	443	24.2	0.8
